Structures are written as SMILES. Read-outs that look alike come from different tables or passages of the source. Some results are limits rather than exact numbers.

Here are results for 29 molecules from PMC12276029, “Structure−Activity Relationships of New 1‐Aryl‐1H‐Indole Derivatives as SARS‐CoV‐2 Nsp13 Inhibitors” (Chemmedchem, 2025).

Series [1] has as its target T1, SARS-CoV-2 nsp13 (Severe acute respiratory syndrome coronavirus 2, UniProt P0DTD1). Description: SARS-CoV-2 nsp13 ATPase-associated activity assay. In kind it is biochemical. Conditions: for IC50 / Activity in enzyme assay IC50 ATPase BSA-TCEP: SARS-CoV-2 nsp13-associated ATPase activity, means ± SD from two experiments in triplicate; for IC50: read-out: Activity in enzyme assay IC50 ATPase BSA-TCEP; for remaining activity at 30 µM: given in brackets beside IC50 >30 μM, read-out: Percentage of enzymatic residual activity, ATPase.

Series [2] deals with T1, SARS-CoV-2 nsp13. Description: SARS-CoV-2 nsp13 unwinding-associated activity assay. Conditions: for IC50: SARS-CoV-2 nsp13-associated unwinding activity, means ± SD from two experiments in triplicate, read-out: Activity in enzyme assay IC50 Unwinding BSA-TCEP; for remaining activity at 30 µM: given in brackets beside IC50 >30 μM, read-out: Percentage of enzymatic residual activity, unwinding; for selectivity for unwinding over ATPase: IC50 ATPase vs IC50 unwinding. The series is classed as biochemical.

The nature of series [3]: in vitro. The following applies: African green monkey.
The test system of series [4] is SARS-CoV-2. Kind of series: SARS-CoV-2 plaque assay in infected Vero E6 cells. In kind it is cell-based. The following applies: for EC50: Severe acute respiratory syndrome coronavirus 2, plaque assay, means ± SD, n = 9, read-out: EC50, concentration reducing SARS-CoV-2 replication in Vero cells by 50%.
Series [5] deals with T1, SARS-CoV-2 nsp13. Kind of series: Mode-of-action assay (incubation-dependent potency, covalent/noncovalent). Conditions: for IC50: read-out: IC50 at time-point. In kind it is biochemical.
Series [6] has as its system MERS-CoV. Conditions: cited from earlier work.
Series [7] deals with SARS-CoV-2. Further details: method as in PMID 37562607. Conditions: cited from earlier work; for EC50: read-out: EC50 SARS-CoV-2 replication.
For series [8], the target named is T1, SARS-CoV-2 nsp13. Further details: method as in PMID 37562607. Conditions: SARS-CoV-2 nsp13 ATPase; cited from earlier work.
For series [9], the system named is Vero cells. Further details: method as in PMID 37562607. The following applies: cited from earlier work.
For series [10], the target named is T1, SARS-CoV-2 nsp13. Further details: method as in PMID 37562607. Conditions: SARS-CoV-2 nsp13 unwinding; cited from earlier work.
The test system of series [11] is HCoV229E. Further details: method as in PMID 37562607. The following applies: cited from earlier work.
In series [12] the test system is SARS-CoV-2. The following applies: read-out: EC50 antiviral activity; cited from earlier work.
Series [13] concerns the target T1, SARS-CoV-2 nsp13. The following applies: read-out: IC50 vs unwinding; cited from earlier work.

Consider `N#Cc1ccc(-n2cc(/C=C/C(=O)/C=C(\O)C(=O)O)c3ccccc32)cc1` [Compound 5g], for which the results for the concentration for half-maximal inhibition (IC50) in [1] and in series [2] were 13.6 ± 3.8 µM and 10 ± 2.07 µM, respectively.

Consider `CCOC(=O)/C(O)=C/C(=O)/C=C/c1cn(-c2ccc(C)cc2)c2ccccc12` [Compound 6b], for which the values for the concentration for half-maximal inhibition (IC50) in series [1] and in series [2] were 8.64 ± 0.77 µM and 13.9 ± 1.5 µM, respectively.

For `Cc1ccc(-n2cc(C(=O)/C=C(\O)C(=O)O)c3ccccc32)cc1` [Compound 7b], in series [1], the “Activity in enzyme assay IC50 ATPase BSA-TCEP” value was “no activity”, the 50% inhibitory concentration (IC50) was more than 30 µM and the remaining activity at 30 µM stood at 70.8%. Besides, in series [2], the IC50 came out at 1.27 ± 0.29 µM.

Take `CCOC(=O)/C(O)=C/C(=O)/C=C/c1cn(-c2ccc(Cl)cc2)c2ccccc12` [Compound 6f]: in series [1], the 50% inhibitory concentration (IC50) amounted to 3.39 ± 0.11 µM. Also, the half-maximal inhibitory concentration (IC50) in [2] was determined as 2.05 ± 0.03 µM. Moreover, the CC50 in series [3] was more than 100 µM. In [4], the “SI = CC50/EC50” value is listed as more than 12 and the EC50 amounted to 8 ± 2.19 µM.

Take `O=C(/C=C(\O)C(=O)O)/C=C/c1cn(-c2ccccc2)c2ccccc12` [Compound 5d]: the 50% inhibitory concentration (IC50) in [1] worked out at 13.1 ± 0.37 µM; in series [2] it was 11.8 ± 0.48 µM.

On to `O=C(/C=C(\O)C(=O)O)/C=C/c1cn(-c2ccc(Cl)cc2)c2ccccc12` [Compound 5f], for which the half-maximal inhibitory concentration (IC50) in series [1] is 20.95 ± 0.14 µM; in series [2], 2.64 ± 0.61 µM.

As to `Cc1ccc(-n2cc(/C=C/C(=O)/C=C(\O)C(=O)O)c3ccccc32)cc1` [Compound 5b], the IC50 in [1] was 5.12 ± 0.38 µM; in series [2], 11.7 ± 0.94 µM.

`COc1ccc(-n2cc(C(=O)/C=C(\O)C(=O)O)c3ccccc32)cc1` [Compound 7a]: in series [1], the IC50 was more than 30 µM and the remaining activity at 30 µM turned out to be 68.7%. Further, in series [2], the 50% inhibitory concentration (IC50) is more than 30 µM and the remaining activity at 30 µM amounted to 63.9%.

As to `CCOC(=O)/C(O)=C/C(=O)/C=C/c1cn(-c2ccc(C(F)(F)F)cc2)c2ccccc12` [Compound 6h], the IC50 in series [1] is 1.21 ± 0.16 µM; in [2] it was 3.11 ± 0.55 µM; in series [5] (1 min after the activation of the reaction) it was 0.3 µM; in series [5] (5 min after the activation of the reaction), 0.48 µM; in series [5] (10 min after the activation of the reaction), 0.79 µM; in series [5] (15 min after the activation of the reaction) it was 1.06 µM. Also, the IC50 in [5] (20 min after the activation of the reaction) turned out to be 1.31 µM. In addition, the “nature of the inhibition” value in series [5] (from time-increased IC50 values) is listed as “noncovalent”. Also, in [5] (preincubation +20 min and +50 min at room temperature), the “effect of extended preincubation of compound and enzyme on potency” value is “did not lead to increasing in inhibitory potency”. This molecule also had a CC50 in series [3] of more than 100 µM. Moreover, in series [4], the “SI = CC50/EC50” value is more than 21. Further, the EC50 in series [4] turned out to be 4.69 ± 1.8 µM.

`O=C(/C=C(\O)C(=O)O)/C=C/c1cn(-c2ccc(C(F)(F)F)cc2)c2ccccc12` [Compound 5h]: in series [1], the IC50 worked out at 14.2 ± 1.6 µM. Also, in [2], the “selectivity for unwinding over ATPase” value is listed as 30 fold and the IC50 is 0.21 ± 0.11 µM. Moreover, in series [3], the CC50 is more than 100 µM. Besides, in series [4], the “SI = CC50/EC50” value is given as more than 21 and the EC50 is 4.56 ± 1.86 µM.

Consider `CC(C)c1ccc(-n2cc(/C=C/C(=O)/C=C(\O)C(=O)O)c3ccccc32)cc1` [Compound 5c], for which the IC50 in [1] was 8.43 ± 0.04 µM. For the same molecule, in [2], the “selectivity for unwinding over ATPase” value worked out at 70 fold and the concentration for half-maximal inhibition (IC50) came out at 0.26 ± 0.01 µM. Besides, the CC50 in series [3] is more than 100 µM. Further, in series [4], the “SI = CC50/EC50” value was more than 47 and the EC50 turned out to be 2.12 ± 0.67 µM.

Consider `CCOC(=O)/C(O)=C/C(=O)c1cn(-c2ccc(C(C)C)cc2)c2ccccc12` [Compound 8c], for which the IC50 in [1] was 15.7 ± 0.1 µM; in series [2] it was 8.04 ± 2.1 µM.

Consider `CCOC(=O)/C(O)=C/C(=O)/C=C/c1cn(-c2ccccc2)c2ccccc12` [Compound 6d], for which the half-maximal inhibitory concentration (IC50) in series [1] came out at 4.94 ± 0.21 µM; in series [2] it was 3.77 ± 0.13 µM.

For the molecule `COc1ccc(-n2cc(/C=C/C(=O)/C=C(\O)C(=O)O)c3ccccc32)cc1` [Compound 5a], the results for the IC50 in series [1] and in series [2] were 11.2 ± 1.37 µM and 2.83 ± 0.54 µM, respectively.

Take `CCOC(=O)/C(O)=C/C(=O)c1cn(-c2ccc(F)cc2)c2ccccc12` [Compound 8e]: the figures for the half-maximal inhibitory concentration (IC50) in [1] and in series [2] were 16.4 ± 3.1 µM and 12.9 ± 0.59 µM, respectively.

`O=C(/C=C(\O)C(=O)O)/C=C/c1cn(-c2ccc(F)cc2)c2ccccc12` [Compound 4]: the “activity range on MERS-CoV” value in series [6] is on record as “submicromolar”. In addition, in series [7], the EC50 is 1.7 µM. Also, the concentration for half-maximal inhibition (IC50) in series [8] was 8.2 µM; in series [10], 4.7 µM. Also, the CC50 in series [9] is more than 264 µM. In series [11], the “activity range on HCoV229E” value is “low micromolar”.

As to `O=C(O)/C(O)=C/C(=O)c1cn(-c2ccccc2)c2ccccc12` [Compound 7d], in series [1], the IC50 was more than 30 µM and the remaining activity at 30 µM turned out to be 102%. Besides, in series [2], the IC50 is more than 30 µM and the remaining activity at 30 µM came out at 75.1%.

Turning to `CCOC(=O)/C(O)=C/C(=O)c1cn(-c2ccc(C)cc2)c2ccccc12` [Compound 8b], the IC50 in series [1] was 18.6 ± 1.14 µM; in series [2], 17.5 ± 1.37 µM.

With `C=CCn1c(S)nnc1CSc1ccccc1[N+](=O)[O-]` [SSYA10‐001], the EC50 in [12] was 81 µM. Further, the IC50 in series [13] is 7.5 µM.

`CC(C)=CCc1c(O)cc(O)c2c(=O)cc(-c3ccc(O)cc3)oc12` [licoflavone C]: the EC50 in [12] is more than 100 µM.

For the molecule `CC(C)c1ccc(-n2cc(C(=O)/C=C(\O)C(=O)O)c3ccccc32)cc1` [Compound 7c], in [1], the “Activity in enzyme assay IC50 ATPase BSA-TCEP” value is given as “no activity”, the IC50 is more than 30 µM and the remaining activity at 30 µM was 63.9%. Also, the IC50 in series [2] was determined as 0.7 ± 0.13 µM. The molecule further yielded a CC50 in series [3] of more than 100 µM. In series [4], the “SI = CC50/EC50” value is more than 12 and the EC50 was 8.1 ± 1.37 µM.

Consider `CCOC(=O)/C(O)=C/C(=O)/C=C/c1cn(-c2ccc(C(C)C)cc2)c2ccccc12` [Compound 6c], for which the half-maximal inhibitory concentration (IC50) in series [1] turned out to be 13.5 ± 3.34 µM; in series [2] it was 4.16 ± 0.44 µM.

Regarding `O=C(O)/C(O)=C/C(=O)c1cn(-c2ccc(F)cc2)c2ccccc12` [Compound 7e], in series [1], the “Activity in enzyme assay IC50 ATPase BSA-TCEP” value is recorded as “no activity”, the concentration for half-maximal inhibition (IC50) was more than 30 µM and the remaining activity at 30 µM is 99.3%. In addition, the 50% inhibitory concentration (IC50) in series [2] was found to be 7.03 ± 1.94 µM.

Take `CCOC(=O)/C(O)=C/C(=O)/C=C/c1cn(-c2ccc(OC)cc2)c2ccccc12` [Compound 6a]: the IC50 in series [1] was found to be 10.4 ± 0.13 µM; in series [2], 7.59 ± 1.5 µM.

On to `CCOC(=O)/C(O)=C/C(=O)c1cn(-c2ccc(OC)cc2)c2ccccc12` [Compound 8a], for which the IC50 in series [1] is 19.06 ± 0.14 µM; in series [2] it was 18.8 ± 0.22 µM.

As for `CCOC(=O)/C(O)=C/C(=O)c1cn(-c2ccccc2)c2ccccc12` [Compound 8d], the results for the half-inhibitory concentration (IC50) in series [1] and in series [2] were 11.3 ± 0.89 µM and 13.3 ± 3.45 µM, respectively.

`CC[C@@]1(O)C(=O)OCc2c1cc1n(c2=O)Cc2cc3ccccc3nc2-1` [Camptothecin, reference compound] registered a CC50 in series [3] of 11.1 ± 0.16 µM.

Regarding `CCOC(=O)/C(O)=C/C(=O)/C=C/c1cn(-c2ccc(F)cc2)c2ccccc12` [Compound 3], in series [6], the “activity range on MERS-CoV” value is given as “submicromolar”. Besides, in series [7], the “SI = CC50/EC50” value was more than 16 and the EC50 was 16.1 ± 3.25 µM. Further, the IC50 in series [8] is 13.6 ± 3.2 µM. Moreover, the CC50 in series [9] was more than 264 µM. For the same molecule, the IC50 in series [10] was 5.9 ± 0.3 µM. The “activity range on HCoV229E” value in series [11] is “low micromolar”.

On to `CCOC(=O)/C(O)=C/C(=O)/C=C/c1cn(-c2ccc(C#N)cc2)c2ccccc12` [Compound 6g], for which the IC50 in series [1] was found to be 2.35 ± 0.4 µM; in series [2] it was 6.26 ± 0.65 µM. For the same molecule, the CC50 in series [3] is more than 100 µM. Besides, in series [4], the “SI = CC50/EC50” value is reported as more than 8. In addition, in series [4], the EC50 was 11.8 ± 7.45 µM.
